Patent publication US11814367B2, “Inhibitors of glycogen synthase 1 (GYS1) and methods of use thereof” (Maze Therapeutics, Inc., priority 2021, dated 2023)

Columns and labels:
[1] = molecular target: hGYS1 enzyme (recombinant hGYS1/GN1 protein) (Homo sapiens (Human), UniProt P13807); experiment: GYS1 coupled enzyme assay (PK/LDH); assay type: biochemical; details: hGYS1/GN1 50 nM, UDP-Glucose 0.8 mM, G6P 1 mM; geometric mean of at least 2 runs
[2] = system: hGYS1 enzyme / glycogen synthesis in HeLa cells; experiment: GYS1 cell based assay (glycogen synthesis, Glucose-glo); set-up: species or system human; details: Homo sapiens, HeLa, 24 h, 24 h incubation, 20 mM glucose, geometric mean of at least 2 runs
Outline: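 HeLa cells starved 24 h in medium containing only 1× Glutamax were plated onto compound in medium with 20 mM glucose (1% DMSO final) for 24 h, 37 °C, 5% CO2. Acid lysates were Tris-quenched, glucoamylase-digested (pH 5.3, 1 h, 37 °C) and read by Glucose-glo luminescence. IC50 came from Hill fits, as geometric mean of ≥2 runs.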

[3] = molecular target: hGYS2 enzyme (recombinant hGYS2/GN1 protein) (Homo sapiens (Human), UniProt P54840); experiment: GYS2 coupled enzyme assay (PK/LDH); assay type: biochemical; details: geometric mean of at least 2 assay runs on separate days, read-out: Avg_IC50
Outline: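 Read-out: NADH loss at 340 nm, read each minute for 10 min, slope normalized to controls, duplicate % inhibition fit to Hill (0–100). Enzyme: 200 nM hGYS2/GN1; substrate 2 mM UDP-glucose plus 0.2% glycogen and 2 mM G6P; pH 7.5 Tris, 2.5% DMSO.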

Chain of hGYS1 enzyme (recombinant hGYS1/GN1 protein) (P13807 whole entry): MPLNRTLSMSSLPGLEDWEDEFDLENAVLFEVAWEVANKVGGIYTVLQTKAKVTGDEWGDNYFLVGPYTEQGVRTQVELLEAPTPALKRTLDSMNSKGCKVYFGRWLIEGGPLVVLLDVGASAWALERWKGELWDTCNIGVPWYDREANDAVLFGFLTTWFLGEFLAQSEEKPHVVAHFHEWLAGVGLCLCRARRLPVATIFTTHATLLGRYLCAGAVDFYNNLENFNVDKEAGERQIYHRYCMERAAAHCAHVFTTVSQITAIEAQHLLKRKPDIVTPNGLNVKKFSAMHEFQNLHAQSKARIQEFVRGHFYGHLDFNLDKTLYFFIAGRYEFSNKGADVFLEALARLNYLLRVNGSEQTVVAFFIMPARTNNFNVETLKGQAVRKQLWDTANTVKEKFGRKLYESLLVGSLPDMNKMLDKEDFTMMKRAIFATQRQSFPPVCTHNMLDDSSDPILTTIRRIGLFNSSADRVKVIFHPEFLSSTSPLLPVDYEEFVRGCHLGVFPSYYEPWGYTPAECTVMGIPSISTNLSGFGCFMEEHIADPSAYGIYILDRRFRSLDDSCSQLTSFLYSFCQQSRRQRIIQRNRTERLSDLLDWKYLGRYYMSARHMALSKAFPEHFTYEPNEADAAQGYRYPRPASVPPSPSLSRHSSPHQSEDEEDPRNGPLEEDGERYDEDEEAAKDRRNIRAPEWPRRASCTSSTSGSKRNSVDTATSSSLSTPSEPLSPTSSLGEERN
Chain of hGYS1 enzyme (recombinant hGYS1/GN1 protein) (P46976 whole entry partner): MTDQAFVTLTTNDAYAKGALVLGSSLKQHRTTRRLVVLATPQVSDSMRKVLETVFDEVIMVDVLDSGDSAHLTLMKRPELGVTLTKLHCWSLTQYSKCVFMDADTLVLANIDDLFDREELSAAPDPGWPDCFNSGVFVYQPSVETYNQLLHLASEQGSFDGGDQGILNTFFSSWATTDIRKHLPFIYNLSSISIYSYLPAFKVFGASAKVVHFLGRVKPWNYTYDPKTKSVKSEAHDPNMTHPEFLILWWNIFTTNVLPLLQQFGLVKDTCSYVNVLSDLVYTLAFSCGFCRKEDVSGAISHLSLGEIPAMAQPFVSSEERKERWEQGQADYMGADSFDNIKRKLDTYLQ
Chain of hGYS2 enzyme (recombinant hGYS2/GN1 protein) (P54840 whole entry): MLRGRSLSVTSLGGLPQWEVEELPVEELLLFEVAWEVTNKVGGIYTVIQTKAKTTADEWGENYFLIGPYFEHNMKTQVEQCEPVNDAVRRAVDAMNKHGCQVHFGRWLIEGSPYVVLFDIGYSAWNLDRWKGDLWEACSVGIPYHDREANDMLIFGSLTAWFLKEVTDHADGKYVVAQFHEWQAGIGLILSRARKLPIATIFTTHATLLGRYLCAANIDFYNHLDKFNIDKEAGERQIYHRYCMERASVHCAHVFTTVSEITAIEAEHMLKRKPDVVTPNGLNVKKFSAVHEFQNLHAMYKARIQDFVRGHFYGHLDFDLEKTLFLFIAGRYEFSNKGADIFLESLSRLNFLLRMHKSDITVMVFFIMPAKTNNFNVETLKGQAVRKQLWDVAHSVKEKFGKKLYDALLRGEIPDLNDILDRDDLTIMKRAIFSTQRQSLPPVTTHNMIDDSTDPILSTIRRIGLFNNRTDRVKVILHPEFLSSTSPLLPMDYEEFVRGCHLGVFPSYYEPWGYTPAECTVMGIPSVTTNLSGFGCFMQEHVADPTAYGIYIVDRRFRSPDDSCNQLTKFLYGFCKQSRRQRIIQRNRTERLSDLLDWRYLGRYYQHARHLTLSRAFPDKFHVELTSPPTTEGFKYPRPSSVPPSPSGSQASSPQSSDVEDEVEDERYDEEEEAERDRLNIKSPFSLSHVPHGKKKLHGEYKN
Chain of hGYS2 enzyme (recombinant hGYS2/GN1 protein) (P46976 whole entry partner): as the sequence (P46976 whole entry partner) above

Compound	IC50 [1]	IC50 [2]	IC50 [3]
O=C(N[C@@H](c1ccccc1)c1ccc(C2CC2)c(F)c1)[C@@H]1C[C@@H](F)CN1C(=O)Cc1noc(=O)[nH]1 [Compound 492, (2S,4R)-N-[(S)-(4-cyclopropyl-3-fluorophenyl)(phenyl)methyl]-4-fluoro-1-[2-(5-oxo-4,5-dihydro-1,2,4-oxadiazol-3-yl)acetyl]pyrrolidine-2-carboxamide]	138 nM	> 30000 nM	> 100000 nM
O=C(N[C@@H](c1ccccc1)c1ccc(C2CC2)c(F)c1)[C@@H]1C[C@@H](F)CN1C(=O)CNC(=O)N1CCOCC1 [Compound 452, N-{2-[(2S,4R)-2-{[(S)-(4-cyclopropyl-3-fluorophenyl)(phenyl)methyl]carbamoyl}-4-fluoropyrrolidin-1-yl]-2-oxoethyl} morpholine-4-carboxamide]	40 nM	980 nM	> 100000 nM
Cc1cn(CC(=O)N2C[C@H](F)C[C@H]2C(=O)N[C@@H](c2ccccc2)c2ccc(C3(C)CC3)c(F)c2)c(=O)[nH]c1=O [Compound 556, (2S,4R)-4-fluoro-N—((S)-(3-fluoro-4-(1-methylcyclopropyl)phenyl)(phenyl)methyl)-1-(2-(5-methyl-2,4-dioxo-3,4-dihydropyrimidin-1(2H)-yl)acetyl)pyrrolidine-2-carboxamide]	27 nM	760 nM	> 100000 nM
CCn1c(=O)c(C)cn(CC(=O)N2C[C@H](F)C[C@H]2C(=O)N[C@@H](c2ccccc2)c2ccc(C(C)C)c(F)n2)c1=O [Compound 794, (2S,4R)-1-[2-(3-ethyl-5-methyl-2,4-dioxo-1,2,3,4-tetrahydropyrimidin-1-yl)acetyl]-4-fluoro-N-[(S)-[6-fluoro-5-(propan-2-yl)pyridin-2-yl](phenyl)methyl] pyrrolidine-2-carboxamide]	2 nM	40 nM	> 100000 nM
Cn1c(=O)n(CC(=O)N2C[C@H](F)C[C@H]2C(=O)N[C@@H](c2ccccc2)c2ccc(C3(C)CC3)c(F)c2)c2ccccc21 [Compound 568, (2S,4R)-4-fluoro-N-[(S)-[3-fluoro-4-(1-methylcyclopropyl)phenyl](phenyl)methyl]-1-[2-(3-methyl-2-oxo-2,3-dihydro-1H-1,3-benzodiazol-1-yl)acetyl]pyrrolidine-2-carboxamide]	89 nM	960 nM	94200 nM
O=C(N[C@@H](c1ccccc1)c1ccc(C2CC2)c(F)c1)[C@@H]1C[C@@H](F)CN1C(=O)CNC(=O)N1CCN(CC2CC2)CC1 [Compound 490, N-{2-[(2S,4R)-2-{[(S)-(4-cyclopropyl-3-fluorophenyl)(phenyl)methyl]carbamoyl}-4-fluoropyrrolidin-1-yl]-2-oxoethyl}-4-(cyclopropylmethyl) piperazine-1-carboxamide]	52 nM	2870 nM	> 100000 nM
Cc1coc(CC(=O)N2C[C@H](F)C[C@H]2C(=O)N[C@@H](c2ccccc2)c2ccc(C3CC(F)(F)C3)c(F)c2)n1 [Compound 554, (2S,4R)-N-[(S)-[4-(3,3-difluorocyclobutyl)-3-fluorophenyl](phenyl)methyl]-4-fluoro-1-[2-(4-methyl-1,3-oxazol-2-yl)acetyl]pyrrolidine-2-carboxamide]	34 nM	380 nM	> 100000 nM

Results, then the molecule that gave them:

IC50 [1]	IC50 [2]	IC50 [3]	Compound
21 nM	560 nM	> 100000 nM	CC(C)c1ccc([C@@H](NC(=O)[C@@H]2C[C@@H](F)CN2C(=O)Cn2cnnn2)c2ccccc2)cc1F [Compound 330, (2S,4R)-4-fluoro-N-[(S)-[3-fluoro-4-(propan-2-yl)phenyl](phenyl)methyl]-1-[2-(1H-1,2,3,4-tetrazol-1-yl)acetyl]pyrrolidine-2-carboxamide]
77 nM	1290 nM	> 100000 nM	CN(CC(=O)N1C[C@H](F)C[C@H]1C(=O)N[C@@H](c1ccccc1)c1ccc(C2CC2)c(F)c1)c1cnccn1 [Compound 475, (2S,4R)-N-[(S)-(4-cyclopropyl-3-fluorophenyl)(phenyl)methyl]-4-fluoro-1-{2-[methyl(pyrazin-2-yl)amino]acetyl} pyrrolidine-2-carboxamide]
39 nM	360 nM	> 100000 nM	CC(C)c1ccc([C@@H](NC(=O)[C@@H]2C[C@@H](F)CN2C(=O)Cc2ccn(C)n2)c2ccccc2)cc1 [Compound 49, (2S,4R)-4-fluoro-1-[2-(1-methyl-1H-pyrazol-3-yl)acetyl]-N-[(S)-phenyl[4-(propan-2-yl)phenyl]methyl]pyrrolidine-2-carboxamide]
77 nM	1800 nM	> 100000 nM	CC(C)c1ccc([C@@H](NC(=O)[C@@H]2C[C@@H](F)CN2C(=O)Cc2cnn[nH]2)c2ccccc2)nc1 [Compound 244, (2S,4R)-1-(2-(1H-1,2,3-triazol-5-yl)acetyl)-4-fluoro-N-((S)-(5-isopropylpyridin-2-yl)(phenyl)methyl)pyrrolidine-2-carboxamide]
36 nM	870 nM	> 100000 nM	Cn1c(CC(=O)N2C[C@H](F)C[C@H]2C(=O)N[C@@H](c2ccccc2)c2ccc(C3(C)CC3)c(F)c2)cc2ccccc21 [Compound 561, (2S,4R)-4-fluoro-N-[(S)-[3-fluoro-4-(1-methylcyclopropyl)phenyl](phenyl)methyl]-1-[2-(1-methyl-1H-indol-2-yl)acetyl]pyrrolidine-2-carboxamide]
204 nM	2710 nM	> 100000 nM	CC(C)(C)c1ccc([C@@H](NC(=O)[C@@H]2C[C@@H](F)CN2C(=O)Cc2cnn[nH]2)c2ccccc2)cc1F [Compound 685, (2S,4R)-N-[(S)-(4-tert-butyl-3-fluorophenyl)(phenyl)methyl]-4-fluoro-1-[2-(1H-1,2,3-triazol-5-yl)acetyl]pyrrolidine-2-carboxamide]
10 nM	280 nM	> 100000 nM	CC(C)c1ccc([C@@H](NC(=O)[C@@H]2C[C@@H](F)CN2C(=O)Cn2ccc(C(F)F)n2)c2ccccc2)nc1F [Compound 789, (2S,4R)-1-{2-[3-(difluoromethyl)-1H-pyrazol-1-yl]acetyl}-4-fluoro-N-[(S)-[6-fluoro-5-(propan-2-yl)pyridin-2-yl](phenyl)methyl] pyrrolidine-2-carboxamide]
19 nM	320 nM	> 100000 nM	CC(C)c1ccc([C@@H](NC(=O)[C@@H]2C[C@@H](F)CN2C(=O)COC(=O)N2CCNCC2)c2ccccc2)cc1F [Compound 363, 2-[(2S,4R)-4-fluoro-2-{[(S)-[3-fluoro-4-(propan-2-yl)phenyl](phenyl)methyl]carbamoyl}pyrrolidin-1-yl]-2-oxoethyl piperazine-1-carboxylate]
47 nM	450 nM	> 100000 nM	CC(C)c1ccc([C@@H](NC(=O)[C@@H]2C[C@@H](F)CN2C(=O)Cn2ccnc2)c2ccccc2)cc1F [Compound 380, (2S,4R)-4-fluoro-N-[(S)-[3-fluoro-4-(propan-2-yl)phenyl](phenyl)methyl]-1-[2-(1H-imidazol-1-yl)acetyl]pyrrolidine-2-carboxamide]
55 nM	1430 nM	> 100000 nM	O=C(N[C@@H](c1ccccc1)c1ccc(C2CC2)c(F)c1)[C@@H]1C[C@@H](F)CN1C(=O)Cc1cnc2ccccn12 [Compound 479, (2S,4R)-N-[(S)-(4-cyclopropyl-3-fluorophenyl)(phenyl)methyl]-4-fluoro-1-(2-{imidazo[1,2-a]pyridin-3-yl}acetyl)pyrrolidine-2-carboxamide]
